Experimental findings from ChEMBL document CHEMBL1141382, “Studies leading to potent, dual inhibitors of Bcl-2 and Bcl-xL” (J Med Chem, 2007) are described below.

For assay [1], the target named is T1, Bcl-2-like protein 1 (Homo sapiens, UniProt Q07817). Kind of assay: Displacement of Bad-derived peptide from Bcl-xL by FPA in presence of 10% human serum.
Assay [2] is described as follows: Reversal of cytokine withdrawal protection in IL3 dependent Bcl-xL overexpressing mouse FL5.12 cells.
Assay [3] has as its system FL5.12. Kind of assay: Reversal of cytokine withdrawal protection in IL3 dependent Bcl-xL overexpressing mouse FL5.12 cells in presence of 3% FBS. The assay is classed as functional.
For assay [4], the target named is Apoptosis regulator Bcl-2 (Homo sapiens, UniProt P10415). Kind of assay: Displacement of Bax-derived peptide from Bcl2 by fluorescence polarization assay. (In general: In fluorescence polarisation assays a small probe gives low polarisation when free and higher when bound to something large.)
Sequence of Apoptosis regulator Bcl-2 (P10415 whole entry): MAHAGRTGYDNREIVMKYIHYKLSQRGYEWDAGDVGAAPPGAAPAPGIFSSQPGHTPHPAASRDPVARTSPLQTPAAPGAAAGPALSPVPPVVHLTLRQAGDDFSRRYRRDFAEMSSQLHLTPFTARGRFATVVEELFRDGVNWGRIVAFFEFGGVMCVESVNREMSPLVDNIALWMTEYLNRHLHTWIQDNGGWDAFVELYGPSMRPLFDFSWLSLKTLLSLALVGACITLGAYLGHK
The target in assay [5] is T1, Bcl-2-like protein 1. The assay is described as follows: Displacement of Bad-derived peptide from Bcl-xL by fluorescence polarization assay.

T1 sequence (Q07817 whole entry): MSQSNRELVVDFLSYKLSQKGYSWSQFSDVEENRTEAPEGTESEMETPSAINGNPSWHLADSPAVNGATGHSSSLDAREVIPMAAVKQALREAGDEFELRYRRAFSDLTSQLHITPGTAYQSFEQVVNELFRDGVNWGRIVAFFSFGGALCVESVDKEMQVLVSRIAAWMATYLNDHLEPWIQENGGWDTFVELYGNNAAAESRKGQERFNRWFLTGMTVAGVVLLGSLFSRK

Turning to `CN(C)CC[C@H](CSc1ccccc1)Nc1ccc(S(=O)(=O)NC(=O)c2ccc(N3CCC(C)(C)CC3)cc2)cc1[N+](=O)[O-]`, the IC50 (usually the midpoint of a concentration-inhibition curve) in assay [1] came to 360 nM. The concentration for a half-maximal effect (EC50) (usually the midpoint of the concentration-response curve) came out at 470 nM in assay [2] and 5100 nM in assay [3].

As for `CN(C)CC[C@H](CSc1ccccc1)Nc1ccc(S(=O)(=O)NC(=O)c2ccc(N3CCN(Cc4ccccc4-c4ccc(F)cc4)CC3)cc2)cc1[N+](=O)[O-]`, the results for the Ki in assay [4] and in assay [5] were < 1 nM and < 0.5 nM, respectively. In addition, the IC50 in assay [1] was < 60 nM. Also, the EC50 in assay [3] stood at 710 nM.

`CN(C)CC[C@H](CSc1ccccc1)Nc1ccc(S(=O)(=O)NC(=O)c2ccc(N3CCN(Cc4ccccc4-c4cccc(Cl)c4)CC3)cc2)cc1[N+](=O)[O-]`: the Ki (usually a dissociation constant, usually derived from enzyme kinetics or from competition with a known ligand) in assay [4] was 16.9 nM; in assay [5] it was < 0.5 nM. In addition, the IC50 in assay [1] is 140 nM. The EC50 in assay [3] was found to be 2800 nM.

As to `CN(C)CC[C@H](CSc1ccccc1)Nc1ccc(S(=O)(=O)NC(=O)c2ccc(N3CCN(Cc4ccccc4-c4ccccc4Cl)CC3)cc2)cc1[N+](=O)[O-]`, the Ki in assay [4] was < 1 nM; in assay [5], < 0.5 nM. Also, the IC50 in assay [1] was < 60 nM. Further, in assay [3], the EC50 came out at 2500 nM.

For the molecule `CN(C)CC[C@H](CSc1ccccc1)Nc1ccc(S(=O)(=O)NC(=O)c2ccc(N3CCN(Cc4ccccc4-c4ccc(S(C)(=O)=O)cc4)CC3)cc2)cc1[N+](=O)[O-]`, the Ki in assay [4] is < 1 nM. The concentration for half-maximal inhibition (IC50) in assay [1] was < 60 nM; in assay [5] it was 9.1 nM. Moreover, the EC50 in assay [3] is 6700 nM.

For `CN(C)CC[C@H](CSc1ccccc1)Nc1ccc(S(=O)(=O)NC(=O)c2ccc(N3CCN(Cc4ccccc4-c4ccccc4)CC3)cc2)cc1[N+](=O)[O-]`, the Ki was < 1 nM in assay [4] and < 0.5 nM in assay [5]. Besides, in assay [1], the IC50 was < 60 nM. Besides, in assay [3], the EC50 was 1200 nM.

On to `CN(C)CC[C@H](CSc1ccccc1)Nc1ccc(S(=O)(=O)NC(=O)c2ccc(N3CCN(Cc4ccccc4-c4ccc(-c5ccccc5)cc4)CC3)cc2)cc1[N+](=O)[O-]`, for which the Ki in assay [4] was < 1 nM; in assay [5], 1 nM. The IC50 in assay [1] came to 100 nM. The EC50 in assay [3] turned out to be 120 nM.

As for `CN(C)CC[C@H](CSc1ccccc1)Nc1ccc(S(=O)(=O)NC(=O)c2ccc(N3CCN(Cc4ccccc4-c4ccc(C(F)(F)F)cc4)CC3)cc2)cc1[N+](=O)[O-]`, the inhibition constant Ki in assay [4] is < 1 nM; in assay [5] it was < 0.5 nM. In addition, the IC50 in assay [1] is < 60 nM. Further, the EC50 in assay [3] worked out at 120 nM.

For `COc1cccc(-c2ccccc2CN2CCN(c3ccc(C(=O)NS(=O)(=O)c4ccc(N[C@H](CCN(C)C)CSc5ccccc5)c([N+](=O)[O-])c4)cc3)CC2)c1`, the Ki was < 1 nM in assay [4] and < 0.5 nM in assay [5]. Also, the IC50 in assay [1] amounted to 178 nM. Further, in assay [3], the EC50 is 4500 nM.

Consider `COc1ccc(-c2ccccc2CN2CCN(c3ccc(C(=O)NS(=O)(=O)c4ccc(N[C@H](CCN(C)C)CSc5ccccc5)c([N+](=O)[O-])c4)cc3)CC2)cc1`, for which the Ki in assay [4] was < 1 nM; in assay [5] it was < 0.5 nM. The half-maximal inhibitory concentration (IC50) in assay [1] was < 60 nM. Moreover, the EC50 in assay [3] worked out at 700 nM.

As for `Cc1ccccc1CN1CCN(c2ccc(C(=O)NS(=O)(=O)c3ccc(N[C@H](CCN(C)C)CSc4ccccc4)c([N+](=O)[O-])c3)cc2)CC1`, the values for the inhibition constant Ki in assay [4] and in assay [5] were 4.5 nM and 3 nM, respectively. For the same molecule, the IC50 in assay [1] was found to be 140 nM.

As for `CN(C)CC[C@H](CSc1ccccc1)Nc1ccc(S(=O)(=O)NC(=O)c2ccc(N3CCN(Cc4ccccc4S(C)(=O)=O)CC3)cc2)cc1[N+](=O)[O-]`, the Ki in assay [4] was determined as 4.6 nM; in assay [5] it was 0.9 nM. Also, in assay [1], the IC50 was 170 nM.

Take `CN(C)CC[C@H](CSc1ccccc1)Nc1ccc(S(=O)(=O)NC(=O)c2ccc(N3CCN(Cc4ccccc4-c4ccc(Cl)cc4)CC3)cc2)cc1[N+](=O)[O-]` [ABT 737]: the EC50 in assay [3] amounted to 220 nM.
